Experimental data as given in patent US9540348B2, “Imidazole-1-yl pyrimidine derivatives, or pharmacutically acceptable salt thereof, and pharmaceutic composition comprising the same as an active ingredient” (Industry-University Cooperation Foundation Hanyang …, priority 2015, dated 2017).
“Also recorded” adds a separate entry of the source.

What was measured:
[1] = target: T1, P38a/MAPK14 (Homo sapiens, UniProt Q16539); experiment: Enzymatic activity (IC50) to kinases; assay type: biochemical; conditions: read-out: IC50 (Unit: nM) P38a/MAPK14
T1 sequence (Q16539 whole entry): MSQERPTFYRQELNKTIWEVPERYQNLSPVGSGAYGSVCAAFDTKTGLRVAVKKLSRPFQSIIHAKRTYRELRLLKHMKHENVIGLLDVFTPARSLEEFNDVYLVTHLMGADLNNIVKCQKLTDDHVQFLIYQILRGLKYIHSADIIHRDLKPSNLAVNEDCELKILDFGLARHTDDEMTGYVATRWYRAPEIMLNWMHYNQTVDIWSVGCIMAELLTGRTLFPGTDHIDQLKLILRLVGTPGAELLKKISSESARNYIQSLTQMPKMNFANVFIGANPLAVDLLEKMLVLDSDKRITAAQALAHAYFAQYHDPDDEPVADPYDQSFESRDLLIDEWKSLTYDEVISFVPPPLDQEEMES

[2] = target: c-MET (Homo sapiens, UniProt P08581); experiment: Kinase panel screening; assay type: biochemical; conditions: 10 μM concentration; read-out: Inhibition Rate (Unit: %) c-MET
Method: (§1) To Compound 10c of Example 23, kinase panel screening was carried out to 32 kinds of kinases in 10 μM concentration and the results are listed in the following Table 2.

[3] = target: PLK1 (Homo sapiens, UniProt P53350); experiment: Kinase panel screening; assay type: biochemical; conditions: 10 μM concentration; read-out: Inhibition Rate (Unit: %) PLK1
Chain of PLK1 (P53350 whole entry, species assumed): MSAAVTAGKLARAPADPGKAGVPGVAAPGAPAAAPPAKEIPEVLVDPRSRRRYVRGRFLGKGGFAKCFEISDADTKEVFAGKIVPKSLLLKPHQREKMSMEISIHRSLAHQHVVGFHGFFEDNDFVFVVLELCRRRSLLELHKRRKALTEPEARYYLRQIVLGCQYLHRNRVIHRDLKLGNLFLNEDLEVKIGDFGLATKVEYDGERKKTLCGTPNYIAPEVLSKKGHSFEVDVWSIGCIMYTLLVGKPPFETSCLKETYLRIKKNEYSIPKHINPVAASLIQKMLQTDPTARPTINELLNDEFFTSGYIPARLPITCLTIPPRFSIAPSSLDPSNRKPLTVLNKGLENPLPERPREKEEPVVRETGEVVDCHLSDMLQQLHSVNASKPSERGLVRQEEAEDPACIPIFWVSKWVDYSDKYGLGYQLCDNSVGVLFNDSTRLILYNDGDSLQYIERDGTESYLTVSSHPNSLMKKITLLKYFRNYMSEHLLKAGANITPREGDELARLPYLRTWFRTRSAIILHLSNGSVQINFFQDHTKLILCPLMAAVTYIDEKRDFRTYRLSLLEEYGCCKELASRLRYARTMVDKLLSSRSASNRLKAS
Method: as §1

[4] = target: EGFR (Homo sapiens, UniProt P00533); experiment: Kinase panel screening; assay type: biochemical; conditions: 10 μM concentration; read-out: Inhibition Rate (Unit: %) EGFR
Method: as §1

[5] = target: LYN (Homo sapiens, UniProt P07948); experiment: Kinase panel screening; assay type: biochemical; conditions: 10 μM concentration; read-out: Inhibition Rate (Unit: %) LYN
Chain of LYN (P07948 whole entry, species assumed): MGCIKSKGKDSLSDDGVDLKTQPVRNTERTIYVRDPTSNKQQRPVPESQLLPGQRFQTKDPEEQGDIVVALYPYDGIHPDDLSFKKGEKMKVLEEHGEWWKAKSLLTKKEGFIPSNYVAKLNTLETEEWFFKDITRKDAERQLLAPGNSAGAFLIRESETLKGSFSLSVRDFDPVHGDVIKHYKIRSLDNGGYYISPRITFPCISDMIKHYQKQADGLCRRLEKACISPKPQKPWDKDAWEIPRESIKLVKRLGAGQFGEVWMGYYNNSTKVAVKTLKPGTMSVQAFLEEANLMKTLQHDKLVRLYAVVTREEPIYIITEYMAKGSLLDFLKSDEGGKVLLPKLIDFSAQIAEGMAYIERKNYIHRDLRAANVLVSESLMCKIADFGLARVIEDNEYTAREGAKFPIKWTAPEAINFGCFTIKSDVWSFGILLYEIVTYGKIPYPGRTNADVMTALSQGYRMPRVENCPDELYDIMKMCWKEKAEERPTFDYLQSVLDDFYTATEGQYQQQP
Method: as §1

[6] = target: MEK1 (Homo sapiens, UniProt Q02750); experiment: Kinase panel screening; assay type: biochemical; conditions: 10 μM concentration; read-out: Inhibition Rate (Unit: %) MEK1
Method: as §1

[7] = target: ERK1 (Homo sapiens, UniProt P27361); experiment: Kinase panel screening; assay type: biochemical; conditions: 10 μM concentration; read-out: Inhibition Rate (Unit: %) ERK1
Chain of ERK1 (P27361 whole entry, species assumed): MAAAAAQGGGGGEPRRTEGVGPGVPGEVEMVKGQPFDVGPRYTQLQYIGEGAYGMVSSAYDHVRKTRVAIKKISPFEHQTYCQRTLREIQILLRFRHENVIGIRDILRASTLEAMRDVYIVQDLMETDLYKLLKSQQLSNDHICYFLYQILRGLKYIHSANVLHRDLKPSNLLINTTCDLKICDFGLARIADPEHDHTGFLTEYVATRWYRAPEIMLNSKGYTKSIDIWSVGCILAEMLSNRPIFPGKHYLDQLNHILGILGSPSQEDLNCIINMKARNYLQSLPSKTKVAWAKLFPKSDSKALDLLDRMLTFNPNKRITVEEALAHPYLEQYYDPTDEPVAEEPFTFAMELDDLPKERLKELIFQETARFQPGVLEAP
Method: as §1

[8] = target: FGFR3 (Homo sapiens, UniProt P22607); experiment: Kinase panel screening; assay type: biochemical; conditions: 10 μM concentration; read-out: Inhibition Rate (Unit: %) FGFR3
Method: as §1

[9] = target: c-Kit (Homo sapiens, UniProt P10721); experiment: Kinase panel screening; assay type: biochemical; conditions: 10 μM concentration; read-out: Inhibition Rate (Unit: %) c-Kit
Chain of c-Kit (P10721 26-976): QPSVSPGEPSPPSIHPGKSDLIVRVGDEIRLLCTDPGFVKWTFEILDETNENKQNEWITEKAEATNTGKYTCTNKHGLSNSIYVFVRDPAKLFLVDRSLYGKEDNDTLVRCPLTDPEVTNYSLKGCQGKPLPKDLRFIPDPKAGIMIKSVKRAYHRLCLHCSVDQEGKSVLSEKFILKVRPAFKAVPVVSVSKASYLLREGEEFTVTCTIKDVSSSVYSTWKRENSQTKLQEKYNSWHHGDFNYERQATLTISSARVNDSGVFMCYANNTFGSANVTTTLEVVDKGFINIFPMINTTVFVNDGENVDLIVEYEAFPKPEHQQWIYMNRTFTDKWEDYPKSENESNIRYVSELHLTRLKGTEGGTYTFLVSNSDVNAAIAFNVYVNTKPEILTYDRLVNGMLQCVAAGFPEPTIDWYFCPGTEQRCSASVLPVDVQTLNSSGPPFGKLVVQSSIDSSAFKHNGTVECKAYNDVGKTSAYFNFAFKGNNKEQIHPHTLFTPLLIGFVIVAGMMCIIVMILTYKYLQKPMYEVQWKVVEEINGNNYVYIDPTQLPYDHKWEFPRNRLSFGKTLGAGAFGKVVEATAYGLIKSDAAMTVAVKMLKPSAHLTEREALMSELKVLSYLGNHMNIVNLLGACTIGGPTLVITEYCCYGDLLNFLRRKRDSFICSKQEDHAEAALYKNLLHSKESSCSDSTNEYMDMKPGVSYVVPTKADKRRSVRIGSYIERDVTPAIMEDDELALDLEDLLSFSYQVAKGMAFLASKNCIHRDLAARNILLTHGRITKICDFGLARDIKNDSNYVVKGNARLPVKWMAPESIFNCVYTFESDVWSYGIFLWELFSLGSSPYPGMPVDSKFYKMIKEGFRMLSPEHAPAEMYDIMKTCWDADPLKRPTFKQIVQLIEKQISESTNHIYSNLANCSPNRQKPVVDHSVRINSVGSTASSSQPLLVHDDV
Method: as §1

[10] = target: SYK (Homo sapiens, UniProt P43405); experiment: Kinase panel screening; assay type: biochemical; conditions: 10 μM concentration; read-out: Inhibition Rate (Unit: %) SYK
Method: as §1

[11] = target: FLT3 (Homo sapiens, UniProt P36888); experiment: Kinase panel screening; assay type: biochemical; conditions: 10 μM concentration; read-out: Inhibition Rate (Unit: %) FLT3
Method: as §1

[12] = target: c-Src (Homo sapiens, UniProt P12931); experiment: Kinase panel screening; assay type: biochemical; conditions: 10 μM concentration; read-out: Inhibition Rate (Unit: %) c-Src
Method: as §1

[13] = target: JAK3 (Homo sapiens, UniProt P52333); experiment: Kinase panel screening; assay type: biochemical; conditions: 10 μM concentration; read-out: Inhibition Rate (Unit: %) JAK3
Method: as §1

[14] = target: ROS/ROS1 (Homo sapiens, UniProt P08922); experiment: Kinase panel screening; assay type: biochemical; conditions: 10 μM concentration; read-out: Inhibition Rate (Unit: %) ROS/ROS1
Method: as §1

[15] = target: ALK (Homo sapiens, UniProt Q9UM73); experiment: Kinase panel screening; assay type: biochemical; conditions: 10 μM concentration; read-out: Inhibition Rate (Unit: %) ALK
Method: as §1

[16] = target: FMS (Homo sapiens, UniProt P07333); experiment: Kinase panel screening; assay type: biochemical; conditions: 10 μM concentration; read-out: Inhibition Rate (Unit: %) FMS
Method: as §1

[17] = target: ABL1 (Homo sapiens, UniProt P00519); experiment: Kinase panel screening; assay type: biochemical; conditions: 10 μM concentration; read-out: Inhibition Rate (Unit: %) ABL1
Method: as §1

[18] = target: T1, P38a/MAPK14; experiment: Kinase panel screening; assay type: biochemical; conditions: 10 μM concentration; read-out: Inhibition Rate (Unit: %) P38a/MAPK14
Method: as §1

[19] = target: FAK/PTK2 (Homo sapiens, UniProt Q05397); experiment: Kinase panel screening; assay type: biochemical; conditions: 10 μM concentration; read-out: Inhibition Rate (Unit: %) FAK/PTK2
Method: as §1

[20] = target: GSK3b (Homo sapiens, UniProt P49841); experiment: Kinase panel screening; assay type: biochemical; conditions: 10 μM concentration; read-out: Inhibition Rate (Unit: %) GSK3b
Method: as §1

[21] = target: BTK (Homo sapiens, UniProt Q06187); experiment: Kinase panel screening; assay type: biochemical; conditions: 10 μM concentration; read-out: Inhibition Rate (Unit: %) BTK
Method: as §1

[22] = target: RAF1 (Homo sapiens, UniProt P04049); experiment: Kinase panel screening; assay type: biochemical; conditions: 10 μM concentration
Chain of RAF1 (P04049 whole entry): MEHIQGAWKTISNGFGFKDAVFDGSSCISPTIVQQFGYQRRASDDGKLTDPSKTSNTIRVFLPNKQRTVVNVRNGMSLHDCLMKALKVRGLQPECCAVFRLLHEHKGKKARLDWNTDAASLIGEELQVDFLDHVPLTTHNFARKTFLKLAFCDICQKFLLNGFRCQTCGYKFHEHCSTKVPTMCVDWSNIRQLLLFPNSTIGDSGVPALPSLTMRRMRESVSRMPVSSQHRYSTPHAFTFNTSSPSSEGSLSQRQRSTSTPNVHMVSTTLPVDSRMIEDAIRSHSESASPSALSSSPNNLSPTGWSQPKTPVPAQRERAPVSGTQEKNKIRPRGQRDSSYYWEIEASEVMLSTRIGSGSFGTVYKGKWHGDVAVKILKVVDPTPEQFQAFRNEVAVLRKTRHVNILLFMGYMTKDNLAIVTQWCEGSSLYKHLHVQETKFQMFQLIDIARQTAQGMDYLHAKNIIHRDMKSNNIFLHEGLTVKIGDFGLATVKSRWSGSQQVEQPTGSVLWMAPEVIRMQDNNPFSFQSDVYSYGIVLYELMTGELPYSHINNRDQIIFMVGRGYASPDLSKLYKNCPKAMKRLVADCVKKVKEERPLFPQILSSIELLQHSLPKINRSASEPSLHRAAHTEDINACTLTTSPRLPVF
Method: as §1

[23] = target: IGF1R (Homo sapiens, UniProt P08069); experiment: Kinase panel screening; assay type: biochemical; conditions: 10 μM concentration; read-out: Inhibition Rate (Unit: %) IGF1R
Chain of IGF1R (P08069 31-1367, species assumed): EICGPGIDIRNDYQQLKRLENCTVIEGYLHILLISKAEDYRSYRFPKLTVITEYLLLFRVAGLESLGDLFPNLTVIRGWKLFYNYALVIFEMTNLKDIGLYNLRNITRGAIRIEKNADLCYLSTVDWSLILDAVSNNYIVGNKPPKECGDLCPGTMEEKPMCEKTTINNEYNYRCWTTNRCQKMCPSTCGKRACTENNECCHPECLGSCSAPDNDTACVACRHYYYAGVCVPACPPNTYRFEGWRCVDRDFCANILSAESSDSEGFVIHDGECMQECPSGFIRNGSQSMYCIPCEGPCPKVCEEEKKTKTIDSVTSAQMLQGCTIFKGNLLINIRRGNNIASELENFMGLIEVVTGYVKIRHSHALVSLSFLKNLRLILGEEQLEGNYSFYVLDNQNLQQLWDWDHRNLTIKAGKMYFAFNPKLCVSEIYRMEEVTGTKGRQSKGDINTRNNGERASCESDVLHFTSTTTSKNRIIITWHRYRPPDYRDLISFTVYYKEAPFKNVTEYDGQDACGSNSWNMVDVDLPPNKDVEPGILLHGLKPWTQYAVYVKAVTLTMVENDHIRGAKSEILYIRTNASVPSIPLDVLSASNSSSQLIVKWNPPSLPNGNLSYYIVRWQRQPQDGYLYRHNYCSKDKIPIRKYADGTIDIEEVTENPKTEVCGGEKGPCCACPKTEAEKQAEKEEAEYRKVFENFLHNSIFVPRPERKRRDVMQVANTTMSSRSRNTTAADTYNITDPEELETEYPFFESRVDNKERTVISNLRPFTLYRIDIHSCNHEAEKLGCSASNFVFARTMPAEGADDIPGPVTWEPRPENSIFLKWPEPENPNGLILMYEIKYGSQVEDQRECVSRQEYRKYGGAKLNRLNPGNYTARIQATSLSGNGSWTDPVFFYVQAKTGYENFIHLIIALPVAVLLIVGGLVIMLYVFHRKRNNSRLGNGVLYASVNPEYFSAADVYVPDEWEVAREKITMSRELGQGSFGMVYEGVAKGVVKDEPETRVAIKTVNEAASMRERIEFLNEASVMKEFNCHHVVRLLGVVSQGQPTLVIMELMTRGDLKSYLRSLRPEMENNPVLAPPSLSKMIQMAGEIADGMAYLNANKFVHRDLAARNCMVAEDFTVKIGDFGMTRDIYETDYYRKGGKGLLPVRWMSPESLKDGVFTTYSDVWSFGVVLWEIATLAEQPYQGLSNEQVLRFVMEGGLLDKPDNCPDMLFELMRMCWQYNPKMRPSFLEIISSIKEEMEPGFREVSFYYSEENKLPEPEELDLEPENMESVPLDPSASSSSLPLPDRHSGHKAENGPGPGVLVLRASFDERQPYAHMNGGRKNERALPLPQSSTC
Method: as §1

[24] = target: AKT1 (Homo sapiens, UniProt P31749); experiment: Kinase panel screening; assay type: biochemical; conditions: 10 μM concentration; read-out: Inhibition Rate (Unit: %) AKT1
Method: as §1

[25] = target: mTOR/FRAP1 (Homo sapiens, UniProt P42345); experiment: Kinase panel screening; assay type: biochemical; conditions: 10 μM concentration; read-out: Inhibition Rate (Unit: %) mTOR/FRAP1
Method: as §1

[26] = tested on: U937 human leukemic monocyte lymphoma cell line; experiment: Antiproliferative activity to U937 human leukemic monocyte lymphoma cell line; assay type: cell-based
Method: The antiproliferative activity of the compounds of Examples to A375P human melanoma cell line and U937 human leukemic monocyte lymphoma cell line are evaluated and listed in the following Table 1.

[27] = tested on: most other kinases except cKit (KIT) and p38a (MAPK14); experiment: Kinase panel screening, summary for the other kinases; assay type: biochemical; conditions: 10 μM concentration
Method: as §1

[28] = target: cRAF1 (Homo sapiens, UniProt P04049); experiment: Enzymatic activity (IC50) to kinases; assay type: biochemical; conditions: read-out: IC50 (Unit: nM) cRAF1
[29] = target: BRAF (V600E) (Homo sapiens, UniProt P15056, V600E); experiment: Enzymatic activity (IC50) to kinases; assay type: biochemical; conditions: read-out: IC50 (Unit: nM) BRAF (V600E)
[30] = target: wild-type BRAF (Homo sapiens, UniProt P15056); experiment: Enzymatic activity (IC50) to kinases; assay type: biochemical; conditions: read-out: IC50 (Unit: nM) BRAF

SMILES: C[C@H](O)CNc1nccc(-n2ccnc2Cc2cccc(NC(=O)Nc3ccc(C(F)(F)F)c(Cl)c3)c2)n1 [Example 23, (S)-1-(3-chloro-4-(trifluoromethyl)phenyl)-3-(3-((1-(2-((2-hydroxypropyl)amino)pyrimidin-4-yl)-1H-imidazol-2-yl)methyl)phenyl)urea]
- IC50 [1]: 571 nM
- inhibition at 10 µM [2]: 17.6%
- inhibition at 10 µM [3]: 9.9%
- inhibition at 10 µM [4]: 0%
- inhibition at 10 µM [5]: 8.1%
- inhibition at 10 µM [6]: 0%
- inhibition at 10 µM [7]: 0%
- inhibition at 10 µM [8]: 3.5%
- inhibition at 10 µM [9]: 63.8%
- inhibition at 10 µM [10]: 0%
- inhibition at 10 µM [11]: 68.4%
- inhibition at 10 µM [12]: 2.1%
- inhibition at 10 µM [13]: 0%
- inhibition at 10 µM [14]: 0.73%
- inhibition at 10 µM [15]: 4.9%
- inhibition at 10 µM [16]: 33.6%
- inhibition at 10 µM [17]: 6.9%
- inhibition at 10 µM [18]: 94.3%
- inhibition at 10 µM [19]: 1.2%
- inhibition at 10 µM [20]: 34.5%
- inhibition at 10 µM [21]: 0%
- Inhibition Rate (Unit: %) RAF1 ([22]; 10 µM): 98.7%
- inhibition at 10 µM ([22]; read-out: Inhibition Rate (Unit: %) RAF1): 99%
- inhibition at 10 µM [23]: 0%
- inhibition at 10 µM [24]: 12.9%
- inhibition at 10 µM [25]: 0%
- potency against U937, in words ([26]; U937 cell line, comparison with Sorafenib): large potencies; also recorded: better potencies than Sorafenib
- GI50 ([26]; U-937, U937 human leukemic monocyte lymphoma cell line, read-out: U937 (GI50, Unit: μM)): 2.73 µM
- inhibition rate to most other kinases [27]: less than 30%
- IC50 [28]: 8.79 nM
- IC50 [29]: 38.3 nM
- IC50 [30]: 186 nM
